Laboratory results as given in patent publication US6352958B1, “Cycloimido-substituted benzofused heterocyclic herbicides” (FMC Corporation, priority 1997, dated 2002).

Legend:
Assay type in all cases: in vivo
[1] = test system: soybean (Glycine max var. Winchester); test: Preemergence herbicidal activity, soybean; conditions: Rate of Application 0.3 Kg/Ha, examined after 12-17 days
[2] = test system: wheat (Triticum aestivum var. Lew); test: Preemergence herbicidal activity, wheat; conditions: Rate of Application 0.3 Kg/Ha, examined after 12-17 days
[3] = test system: field corn (Zea mays var. Pioneer 3732); test: Preemergence herbicidal activity, corn; conditions: Rate of Application 0.3 Kg/Ha, examined after 12-17 days
[4] = test system: velvetleaf (Abutilon theophrasti); test: Preemergence herbicidal activity, velvetleaf; conditions: Rate of Application 0.3 Kg/Ha, examined after 12-17 days
[5] = test system: morningglory (Ipomea lacunosa or Ipomea hederacea); test: Preemergence herbicidal activity, morningglory; conditions: Rate of Application 0.3 Kg/Ha, examined after 12-17 days
[6] = test system: common chickweed (Stellaria media); test: Preemergence herbicidal activity, chickweed; conditions: Rate of Application 0.3 Kg/Ha, examined after 12-17 days
[7] = test system: blackgrass (Aloepecurus myosuroides); test: Preemergence herbicidal activity, blackgrass; conditions: Rate of Application 0.3 Kg/Ha, examined after 12-17 days
[8] = test system: green foxtail (Setaria viridis); test: Preemergence herbicidal activity, green foxtail; conditions: Rate of Application 0.3 Kg/Ha, examined after 12-17 days
[9] = test system: Johnsongrass (Sorghum halepense); test: Preemergence herbicidal activity, johnsongrass; conditions: Rate of Application 0.3 Kg/Ha, examined after 12-17 days
[10] = test system: soybean (Glycine max var. Winchester); test: Postemergence herbicidal activity, soybean; conditions: rate of application 0.3 Kg/Ha, rated after 12-17 days
[11] = test system: wheat (Triticum aestivum var. Lew); test: Postemergence herbicidal activity, wheat; conditions: rate of application 0.3 Kg/Ha, rated after 12-17 days
[12] = test system: field corn (Zea mays var. Pioneer 3732); test: Postemergence herbicidal activity, corn; conditions: rate of application 0.3 Kg/Ha, rated after 12-17 days
[13] = test system: velvetleaf (Abutilon theophrasti); test: Postemergence herbicidal activity, velvetleaf; conditions: rate of application 0.3 Kg/Ha, rated after 12-17 days
[14] = test system: morningglory (Ipomea lacunosa or Ipomea hederacea); test: Postemergence herbicidal activity, morningglory; conditions: rate of application 0.3 Kg/Ha, rated after 12-17 days
[15] = test system: common chickweed (Stellaria media); test: Postemergence herbicidal activity, chickweed; conditions: rate of application 0.3 Kg/Ha, rated after 12-17 days
[16] = test system: blackgrass (Aloepecurus myosuroides); test: Postemergence herbicidal activity, blackgrass; conditions: rate of application 0.3 Kg/Ha, rated after 12-17 days
[17] = test system: green foxtail (Setaria viridis); test: Postemergence herbicidal activity, green foxtail; conditions: rate of application 0.3 Kg/Ha, rated after 12-17 days
[18] = test system: Johnsongrass (Sorghum halepense); test: Postemergence herbicidal activity, johnsongrass; conditions: rate of application 0.3 Kg/Ha, rated after 12-17 days
[19] = test system: common cocklebur (Xanthium strumarium L.); test: Preemergence herbicidal activity, cocklebur; conditions: Rate of Application 0.3 Kg/Ha, examined after 12-17 days
[20] = test system: common cocklebur (Xanthium strumarium L.); test: Postemergence herbicidal activity, cocklebur; conditions: rate of application 0.3 Kg/Ha, rated after 12-17 days

Row | SMILES | PREEMERGENCE HERBICIDAL ACTIVITY (% CONTROL) SOY [1] [%] | PREEMERGENCE HERBICIDAL ACTIVITY (% CONTROL) WHT [2] [%] | PREEMERGENCE HERBICIDAL ACTIVITY (% CONTROL) CRN [3] [%] | PREEMERGENCE HERBICIDAL ACTIVITY (% CONTROL) ABUTH [4] [%] | PREEMERGENCE HERBICIDAL ACTIVITY (% CONTROL) IPOSS [5] [%] | PREEMERGENCE HERBICIDAL ACTIVITY (% CONTROL) STEME [6] [%] | PREEMERGENCE HERBICIDAL ACTIVITY (% CONTROL) ALOMY [7] [%] | PREEMERGENCE HERBICIDAL ACTIVITY (% CONTROL) SETVI [8] [%] | PREEMERGENCE HERBICIDAL ACTIVITY (% CONTROL) SORHA [9] [%] | Postemergence herbicidal activity (% control) SOY [10] [%] | Postemergence herbicidal activity (% control) WHT [11] [%] | Postemergence herbicidal activity (% control) CRN [12] [%] | Postemergence herbicidal activity (% control) ABUTH [13] [%] | Postemergence herbicidal activity (% control) IPOSS [14] [%] | Postemergence herbicidal activity (% control) STEME [15] [%] | Postemergence herbicidal activity (% control) ALOMY [16] [%] | Postemergence herbicidal activity (% control) SETVI [17] [%] | Postemergence herbicidal activity (% control) SORHA [18] [%] | PREEMERGENCE HERBICIDAL ACTIVITY (% CONTROL) XANPE [19] [%] | Postemergence herbicidal activity (% control) XANPE [20] [%] | other results
1 | COCOC(C)(C)c1cc2c(Cl)cc(F)c(-n3c(=O)cc(C(F)(F)F)n(C)c3=O)c2o1 [Compound 252] | 100 | 100 | 100 | 100 | 100 | 100 | 100 | 100 | 100 | 95 | 90 | 100 | 100 | 100 | 100 | 100 | 100 | 100 | – | – | –
2 | Cn1c(C(F)(F)F)cc(=O)n(-c2ccc(Cl)c3cc(C=NO)oc23)c1=O [Compound 258] | 30 | 30 | 75 | 100 | 60 | 0 | – | 40 | 40 | 80 | 30 | 60 | 80 | 70 | 5 | 30 | 60 | 50 | 60 | 50 | –
3 | CON=Cc1cc2c(Cl)ccc(-n3c(=O)cc(C(F)(F)F)n(C)c3=O)c2o1 [Compound 259] | 70 | 40 | 80 | 100 | 70 | 100 | – | 100 | 95 | 80 | 35 | 75 | 100 | 90 | 30 | 55 | 80 | 70 | 55 | 70 | –
4 | CNC(=O)c1cc2c(Cl)ccc(-n3c(=O)cc(C(F)(F)F)n(C)c3=O)c2o1 [Compound 270] | 70 | 70 | 90 | 100 | 100 | – | 65 | 100 | 100 | 70 | 40 | 50 | 100 | 60 | 40 | 50 | 50 | 50 | 60 | – | –
5 | Cn1c(C(F)(F)F)cc(=O)n(-c2c(F)cc(Cl)c3[nH]c(C(F)(F)F)nc23)c1=O [Compound 365, 3-(4-CHLORO-6-FLUORO-2-TRIFLUOROMETHYLBENZIMIDAZOL-7-YL)-1-METHYL-6-TRIFLUOROMETHYL-2,4(1H,3H)-PYRIMIDINEDIONE] | – | – | – | – | – | – | – | – | – | – | – | – | – | – | – | – | – | – | – | – | inhibition at 300 g/ha ([2]; Triticum aestivum, pre-emergence, read-out: PREEMERGENCE HERBICIDAL ACTIVITY (% CONTROL) WHT): 30%; inhibition at 300 g/ha ([3]; Zea mays, pre-emergence, read-out: PREEMERGENCE HERBICIDAL ACTIVITY (% CONTROL) CRN): 30%; inhibition at 300 g/ha ([4]; Abutilon theophrasti, pre-emergence, read-out: PREEMERGENCE HERBICIDAL ACTIVITY (% CONTROL) ABUTH): 100%; inhibition at 300 g/ha ([5]; Ipomoea, pre-emergence, read-out: PREEMERGENCE HERBICIDAL ACTIVITY (% CONTROL) IPOSS): 100%; inhibition at 300 g/ha ([6]; Stellaria media, pre-emergence, read-out: PREEMERGENCE HERBICIDAL ACTIVITY (% CONTROL) STEME): 100%; inhibition at 300 g/ha ([19]; Xanthium strumarium, pre-emergence, read-out: PREEMERGENCE HERBICIDAL ACTIVITY (% CONTROL) XANPE): 100%; inhibition at 300 g/ha ([7]; Alopecurus myosuroides, pre-emergence, read-out: PREEMERGENCE HERBICIDAL ACTIVITY (% CONTROL) ALOMY): 60%; inhibition at 300 g/ha ([8]; Setaria viridis, pre-emergence, read-out: PREEMERGENCE HERBICIDAL ACTIVITY (% CONTROL) SETVI): 75%; inhibition at 300 g/ha ([9]; Sorghum halepense, pre-emergence, read-out: PREEMERGENCE HERBICIDAL ACTIVITY (% CONTROL) SORHA): 60%; inhibition at 300 g/ha ([10]; Glycine max, post-emergence, read-out: Postemergence herbicidal activity (% control) SOY): 100%; inhibition at 300 g/ha ([11]; Triticum aestivum, post-emergence, read-out: Postemergence herbicidal activity (% control) WHT): 40%; inhibition at 300 g/ha ([12]; Zea mays, post-emergence, read-out: Postemergence herbicidal activity (% control) CRN): 70%; inhibition at 300 g/ha ([13]; Abutilon theophrasti, post-emergence, read-out: Postemergence herbicidal activity (% control) ABUTH): 100%; inhibition at 300 g/ha ([14]; Ipomoea, post-emergence, read-out: Postemergence herbicidal activity (% control) IPOSS): 100%; inhibition at 300 g/ha ([15]; Stellaria media, post-emergence, read-out: Postemergence herbicidal activity (% control) STEME): 100%; inhibition at 300 g/ha ([16]; Alopecurus myosuroides, post-emergence, read-out: Postemergence herbicidal activity (% control) ALOMY): 70%; inhibition at 300 g/ha ([17]; Setaria viridis, post-emergence, read-out: Postemergence herbicidal activity (% control) SETVI): 80%; inhibition at 300 g/ha ([18]; Sorghum halepense, post-emergence, read-out: Postemergence herbicidal activity (% control) SORHA): 30%
6 | CCOC(=O)c1cc2c(N3C(=O)C4=C(CCCC4)C3=O)ccc(Cl)c2[nH]1 [Compound 595, 3-(7-CHLORO-2-ETHOXYCARBONYLINDOL4-YL)-4,5,6,7-TETRAHYDRO-1H-ISOINDOLE-1,3(2H)-DIONE] | 10 | 0 | 0 | 60 | 50 | 10 | – | 0 | 40 | 50 | 10 | 60 | 30 | 40 | 0 | 10 | 20 | 20 | 20 | 20 | –
